Laboratory results reported in patent US7745377B2, “Labeled peptides, proteins and antibodies and processes and intermediates useful for their preparation” (priority 2000, dated 2010).

B1: mero-CBD: cdc42 binding domain of WASP (amino acids 201 to 321) conjugated to the merocyanine dye shown in FIG. 11 (conjugate)
chain: DIQNPDITSSRYRGLPAPGPSPADKKRSGKKKISKADIGAPSGFKHVSHVGWDPQNGFDVNNLDPDLRSLCSRAGISEAQLTDAETSKLIYDFIEDQGGLEAVRQEMRRQEPLPPPPPPSHHHHHH

Columns and labels:
[1] = Spectral data of merocyanine dyes (absorbance and fluorescence spectra); format: physicochemical; parameters: Absorption Maximum / Emission Maximum: unit not given here; conditions: n-butanol
Experimental: Absorbance spectra were recorded on Hewlett-Packard HP8452 diode array spectrophotometer and fluorescence spectra were recorded on SPEX Fluorolog 2 spectrometer.

cdc42 = biological target: T1, cdc42 (Homo sapiens, UniProt P60953); assay: Fluorescence of mero-CBD solvatochromic activation indicator with cdc42; format: binding; conditions: for increase of fluorescence intensity on binding activated cdc42: cdc42-GTPγS, excitation and emission maxima
T1 construct: 6His; made in house
Experimental: (§1) Analyses of the solvatochromic activation indicator—A solution of mero-CBD (300 nM) in assay buffer was mixed 1:1 (v/v) with solutions of cdc42 (concentration as indicated), pre-equilibrated with 10 mM GDP or GTPγS as described in Knaus, U. G., Heyworth, P. G., Kinsella, B. T., Curnutte, J. T., and Bokoch, G. M. (1992) J. Biol. Chem. 267, 23575-23582. Emission wavelength of 630 nm and excitation wavelength of 600 nm were used to acquire excitation and emission spectra, respectively. For nucleotide dependence, cdc42 (500 nM) was pre-incubated with varying concentrations of GTPγS (1 to 500 nM). Rac1 and RhoA GTPases were pre-equilibrated with GTP […]S in the same manner.
(§2) Fluorescence increase as a measure of CBD-cdc42 interaction—The functionality and specificity of mero-CBD was characterized by measuring fluorescence in the presence of saturating amounts of cdc42-GDP or cdc42-GTPγS. […] Negligible increase (<5%) was also observed in the presence of activated Rac1. No effect on the mero-CBD fluorescence was observed when RhoA-GTPγS was present. Furthermore, even in the presence of excess of activated Rac1 and RhoA, GDP- and GTPγS-bound forms of cdc42 were easily distinguished by CBD-A4C fluorescence (data not shown).

Rac1 = biological target: T2, Rac1 (Homo sapiens, UniProt P63000); assay: Fluorescence of mero-CBD with activated Rac1; format: binding; conditions: Rac1 pre-equilibrated with GTPγS
T2 construct: 6His; made in house
Experimental: as §1, §2

RhoA = biological target: T3, RhoA (Homo sapiens, UniProt P61586); assay: Fluorescence of mero-CBD with RhoA-GTPγS; format: binding; conditions: RhoA-GTPγS present
T3 construct: 6His; made in house
Experimental: as §1, §2

T1 sequence (P60953 whole entry, species assumed): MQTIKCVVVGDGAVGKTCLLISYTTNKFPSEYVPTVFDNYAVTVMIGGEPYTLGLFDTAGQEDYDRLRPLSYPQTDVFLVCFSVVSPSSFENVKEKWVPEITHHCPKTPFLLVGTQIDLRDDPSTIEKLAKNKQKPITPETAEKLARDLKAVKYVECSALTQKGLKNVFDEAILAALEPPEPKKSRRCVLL
T3 sequence (P61586 whole entry, species assumed): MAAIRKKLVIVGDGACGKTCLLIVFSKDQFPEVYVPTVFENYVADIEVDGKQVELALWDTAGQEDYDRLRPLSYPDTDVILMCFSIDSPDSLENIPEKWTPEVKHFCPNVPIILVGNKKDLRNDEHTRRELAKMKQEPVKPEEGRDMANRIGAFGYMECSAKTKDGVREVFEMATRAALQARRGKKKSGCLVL

Molecule | Absorption Maximum [1] | Emission Maximum [1] | Extinction coefficient (*10^−3) [1] | Quantum Yield [1] | increase of fluorescence intensity on binding activated cdc42 (cdc42) | increase of fluorescence intensity on binding activated cdc42 (cdc42; listed as CBD biosensor) | fluorescence increase in presence of cdc42-GDP (cdc42; saturating cdc42-GDP) | fluorescence increase in presence of activated Rac1 (Rac1) [%] | effect on mero-CBD fluorescence of RhoA-GTPγS (RhoA)
O=C1/C(=C/C=C/C=C2/Sc3ccccc3N2CCCS(=O)(=O)[O-])S(=O)(=O)c2ccccc21.[Na+] [Compound 2] | 603 | 623 | 100 | 0.10 | – | – | – | – | –
CC1(C)/C(=C/C=C/C=C2/C(=O)c3ccccc3S2(=O)=O)N(CCCS(=O)(=O)[O-])c2ccccc21.[Na+] [Compound 3] | – | – | 120 | 0.17 | – | – | – | – | –
CC1(C)/C(=C/C=C/C=C2/C(=O)c3ccccc3C2=C(C#N)C#N)N(CCCS(=O)(=O)[O-])c2ccccc21.[Na+] [Compound 4] | – | – | 80 | 0.10 | – | – | – | – | –
B1 | – | – | – | – | Approximately 3.5 fold | up to 3.5 fold | not cdc42-GDP | < 5 | No effect
